Laboratory results reported in patent US9772334B2, “Inflammatory bowel disease markers and therapies for colitis-associated intestinal fibrosis” (THE REGENTS OF THE UNIVERSITY OF CALIFORNIA, priority 2012, dated 2017).

How the values were obtained:
[1] = system: TNBS acute colitis; test: TNBS treated acute colitis in mice, intracolonic mCRAMP; type: in vivo; settings: for colonic 16S expression: intracolonic
From the text: FIG. 20A is an illustration of TNBS experimental plan. […] Experiments included n=6 mice per group.
FIGS. 21B and 21C show colonic Camp mRNA expression of mice. […] There was no significant difference in 16S expression among wild-type and Camp−/− mice. n=6 mice per group.

[2] = system: Akt and ERK phosphorylation in Raw 264.7 macrophages; test: LPS induced Akt and ERK phosphorylation in Raw 264.7 macrophages; type: cell-based, mouse; settings: mCRAMP 10 μM; 30 minutes
From the text: […]. LPS induced TNFα expression is Akt dependent. […] All experiments are representative of 3 independent experiments.

[3] = system: DSS mediated colitis; settings: intracolonic exogenous peptide; Tai et al. 2007; cited from earlier work
[4] = system: TNBS mediated chronic colitis; test: TNBS mediated chronic colitis in mice, intracolonic mCRAMP; type: in vivo; settings: for colonic collagen deposition / TNBS induced colonic TNFα protein expression / colonic colla2 mRNA: intracolonic
Procedure: FIG. 1A is an illustration of the experimental plan of TNBS mediated chronic colitis. Wild-type and […] mice were injected with TNBS solution (0.5-1 mg per 20 g mice) in 30% ethanol or 30% ethanol only (vehicle control) under transient isoflurane anesthesia. […] All ethanol treated groups had approximately 20% body weight gain. […] Results are representative of n=6 mice per group.
Collagen was stained in blue. Collagen deposited in mucosal and submucosal layer of TNBS treated wild-type mice was reduced by CRAMP treatment. […] Intracolonic treatment of mCRAMP reduced colonic colla2 mRNA and collagen deposition in both WT (p=0.0364) and Camp^−/− (p=0.04) mice. Results are representative of n=6 mice per group.
Fibroblasts accumulated in the mucosal and submucosal locations as collagen deposition. […] Three different locations (3 separate images) per sample were counted. […] Cell migration was not affected by LL-37 (0-10 μM). Results are representative of 3 independent experiments.

[5] = system: TNFα expression in Raw264.7 macrophages; test: PAMP induced TNFα expression in Raw264.7 macrophages; type: cell-based, mouse
Procedure: To identify the anti-inflammatory mechanism of cathelicidin, human PBMCs and mouse macrophages to were exposed to PAMP signals (LPS and E. coli DNA) in the presence of cathelicidin LL-37 or mCRAMP (1-10 μM).

[6] = system: TNFα expression in Raw264.7 macrophages; test: as above; type: cell-based, mouse; settings: flagellin 50 ng/ml

Substance: mCRAMP
- colonic TNFα levels ([1]; Camp−/− mice): significantly reduced colonic TNFα levels
- colonic 16S expression ([1]; Camp−/− mice): significantly reduced colonic 16S expression
- histological damage (histological score) ([1]; Camp−/− mice, p=0.0484): significantly reduced histological damage
- colonic TNFα levels ([1]; wild-type mice): significantly reduced colonic TNFα levels
- colonic 16S expression ([1]; wild-type mice): significantly reduced colonic 16S expression
- histological damage (histological score) ([1]; wild-type mice, p=0.0006): significantly reduced histological damage
- LPS induced Akt phosphorylation [2]: significantly suppressed
- LPS induced ERK phosphorylation [2]: significantly suppressed
- DSS mediated colitis [3]: ameliorates DSS mediated colitis
- colonic collagen deposition ([4]; Camp−/− mice): reduced
- TNBS induced colonic TNFα protein expression ([4]; Camp−/− mice, p=0.0054): significantly reduced TNBS induced TNFα protein expression
- colonic colla2 mRNA ([4]; Camp−/− mice, p=0.04): reduced
- histology score (H&E) ([4]; Camp−/− mice, p=0.04): significantly reduced histology score
- percent of body weight change (week 0 to week 7) ([4]; TNBS treated Camp−/− mice): significant body weight loss regardless of mCRAMP treatment
- collagen deposited in mucosal and submucosal layer (Masson Trichrome staining) ([4]; TNBS treated wild-type mice): reduced
- percent of body weight change (week 0 to week 7) ([4]; TNBS treated wild-type mice, p=0.01): restored the body weight gain
- colonic vimentin mRNA expression ([4]; WT and Camp−/− mice): did not affect
- colonic α-SMA mRNA expression ([4]; WT and Camp−/− mice): did not affect
- colonic collagen deposition ([4]; WT mice): reduced
- TNBS induced colonic TNFα protein expression ([4]; WT mice, p=0.0127): significantly reduced TNBS induced TNFα protein expression
- colonic colla2 mRNA ([4]; WT mice, p=0.0364): reduced
- fibroblast accumulation (number of fibroblasts per field, vimentin immunohistochemistry) ([4]; chronic TNBS colitis): not affected
- TNBS induced intestinal fibrosis ([4]; mCRAMP 5 mg/kg intracolonically): significantly reduces TNBS induced intestinal fibrosis
- histology score (H&E) ([4]; wild-type mice, p=0.03): significantly reduced histology score
- LPS induced TNF mRNA expression ([5]; mCRAMP 10 μM, 6 and 16 hours): did not alter
- LPS induced TNFα protein expression in conditioned media ([5]; mCRAMP 10 μM, LPS 0.1 μg/ml, 16 hours): significantly reduced
- E. coli DNA induced TNFα expression ([5]; mCRAMP 1-10 μM, E. coli DNA 0.5 μg/ml, 16 hours): no inhibitory effect
- flagellin induced TNFα expression [6]: no inhibitory effect
